In patent US5744298A, “DNA sequences which encode immunoreactive HCMV-specific peptides” (Behringwerke Aktiengesellschaft, priority 1991, dated 1998):
Where no end group is shown, it is not given here.

B1: recombinant protein XP1: recombinant protein section, amino acid 718-880 of HCMV protein pp150 (protein)
chain: DPRFTDTLVDITDTETSAKPPVTTAYKFEQPTLTFGAGVNVPAGAGAAILTPTPVNPSTAPAPAPTPTFAGTQTPVNGNSPWAPTAPLPGDMNPANWPRERAWALKNPHLAYNPFRMPTTSTASQNTVSTTPRRPSTPRAAVTQTASRDAADEVWALRDQTA
B2: HCMV protein pp150: HCMV protein pp150 (protein, UniProt P08318 1-1048, looked up)
Large structural …: MSLQFIGLQRRDVVALVNFLRHLTQKPDVDLEAHPKILKKCGEKRLHRRTVLFNELMLWLGYYRELRFHNPDLSSVLEEFEVRCVAVARRGYTYPFGDRGKARDHLAVLDRTEFDTDVRHDAEIVERALVSAVILAKMSVRETLVTAIGQTEPIAFVHLKDTEVQRIEENLEGVRRNMFCVKPLDLNLDRHANTALVNAVNKLVYTGRLIMNVRRSWEELERKCLARIQERCKLLVKELRMCLSFDSNYCRNILKHAVENGDSADTLLELLIEDFDIYVDSFPQSAHTFLGARSPSLEFDDDANLLSLGGGSAFSSVPKKHVPTQPLDGWSWIASPWKGHKPFRFEAHGSLAPAAEAHAARSAAVGYYDEEEKRRERQKRVDDEVVQREKQQLKAWEERQQNLQQRQQQPPPPARKPSASRRLFGSSADEDDDDDDDEKNIFTPIKKPGTSGKGAASGGGVSSIFSGLLSSGSQKPTSGPLNIPQQQQRHAAFSLVSPQVTKASPGRVRRDSAWDVRPLTETRGDLFSGDEDSDSSDGYPPNRQDPRFTDTLVDITDTETSAKPPVTTAYKFEQPTLTFGAGVNVPAGAGAAILTPTPVNPSTAPAPAPTPTFAGTQTPVNGNSPWAPTAPLPGDMNPANWPRERAWALKNPHLAYNPFRMPTTSTASQNTVSTTPRRPSTPRAAVTQTASRDAADEVWALRDQTAESPVEDSEEEDDDSSDTGSVVSLGHTTPSSDYNNDVISPPSQTPEQSTPSRIRKAKLSSPMTTTSTSQKPVLGKRVATPHASARAQTVTSTPVQGRLEKQVSGTPSTVPATLLQPQPASSKTTSSRNVTSGAGTSSASSARQPSASASVLSPTEDDVVSPATSPLSMLSSASPSPAKSAPPSPVKGRGSRVGVPSLKPTLGGKAVVGRPPSVPVSGSAPGRLSGSSRAASTTPTYPAVTTVYPPSSTAKSSVSNAPPVASPSILKPGASAALQSRRSTGTAAVGSPVKSTTGMKTVAFDLSSPQKSGTGPQPGSAGMGGAKTPSDAVQNILQKIEKIKNTEE

Key:
CMV IgG-positive sera = test: ELISA of peptide-coated microtiter plates with CMV IgG-positive human sera (localization of epitopes); assay type: binding; conditions: plate coated with 2.5 μg peptide per ml, serum dilution 1:2; for Reactivity (individual reactivities of particularly reactive peptides with the assayed group of CMV IgG-positive sera, in percent): Table 3
Protocol: A microtiter plate with 96 wells was coated with a synthesized peptide. To do this, a solution of 2.5 μg of peptide per ml of carbonate buffer was made up and introduced in 100 μl portions into the wells for the coating. The peptides were adsorbed onto the surfaces at 4° C. overnight and, after removal of the peptide solution, the wells were washed several times with washing buffer (50 mM Tris, pH 7.2, 10 mM EDTA, 0.2% Tween 20). Then individual human serum samples in a 1:2 dilution were introduced and incubated at 37° C. for 1 hour. After another washing step, the conjugate antibody specific for human IgG antibodies or human IgM antibodies and labeled with peroxidase was added and the mixture was incubated at room temperature for 0.5 hour. The reaction was subsequently stopped by adding 0.5M sulfuric acid and extinction of the individual samples was measured at a wavelength of 450/650 nm in a photometer.
To test the immunogenicity, peptides of various length from the complete amino-acid sequence region from 718 to 880 of the HCMV protein pp150 (Tab. 2 and 3) were synthesized as described in Example 1. Subsequently, as in Example 2, the microtiter plates were coated with the synthesized peptides, and the immunological reactivity was assayed. […] The three immunologically reactive peptides have the following sequences: […]

[1] = tested on: monoclonal antibody 87-55/02; test: Reaction of the monoclonal antibody 87-55/02 with peptide epitopes (ELISA, immunoblot); assay type: binding; conditions: measured as immunoblot and ELISA reactivity
Source text: It was concluded from the method for selecting the monoclonal antibody that the identified epitope must have a very important structure which is not even destroyed by denaturation of the complete protein. This monoclonal antibody correspondingly reacts both with the synthesized peptide 2.7 (SEQ ID NO:26) and with the recombinant protein XP1 (SEQ ID NO:33) and the pp150 protein of HCMV.

Molecule	Reactivity (individual reactivities of particularly reactive peptides with the assayed group of CMV IgG-positive sera, in percent) (CMV IgG-positive sera) [%]	Reactivity (individual reactivities of the synthetic pXP1 segments with the assayed group of CMV IgG-positive sera, in percent) (CMV IgG-positive sera; Table 2) [%]	immunological reaction of monoclonal antibody 87-55/02 with protein [1]
ala tyr lys phe glu gln pro thr leu thr phe gly ala gly val asn val pro ala gly ala gly ala ala ile leu thr pro thr pro val asn pro ser thr ala pro ala pro ala pro (AYKFGQPTLTFGAGVNVPAGAGAAILTPTPVNPSTAPAPAP) [Peptide 1.13]	90	–	–
phe glu gln pro thr leu thr phe gly ala gly val asn val pro ala gly ala gly ala ala ile leu thr pro thr pro val asn pro ser thr ala pro ala pro ala (FEQPTTLTFGAGVNVPAGAGAAILTPTPVNPSTAPAPA) [Peptide 1.4]	90	–	–
pro thr leu thr phe gly ala gly val asn val pro ala gly ala gly ala ala ile leu thr pro thr pro val asn pro ser thr ala pro ala pro ala pro NH2 (PTLTFGAGVNVPAGAGAAILTPTPVNPSTAPAPAP-NH2) [Peptide 1.6]	90	90	–
B1	–	–	reacts
B2	–	–	unambiguous immunological reaction
